Source: patent US8628938B2, “Polynucleotide encoding UDP-glucuronyl transferase” (Suntory Holdings Limited, priority 2007, dated 2014)
Blank lines part the entries; values can stand above or below the molecule they belong to.

Legend:
Sb7GAT = conditions: enzyme purified from Scutellaria baicalensis; Nagashima et al. 2000; cited from earlier work
AmUGTcg10 = experiment: UDP-glucuronosyltransferase activity assay (HPLC) with recombinant AmUGTcg10; format: biochemical, Antirrhinum majus; conditions: 100 μM glycosyl acceptor substrate, 2 mM UDP-glucuronic acid, pH 7.5, 30° C., 30 minutes
Procedure: (§1) Escherichia coli BL21 (DE3) was transformed with each plasmid obtained in 4-(1) above. The transformant obtained was shake cultured overnight at 37° C. in 4 ml of LB medium (10 g/l tryptone, 5 g/l yeast extract, 1 g/l NaCl) supplemented with 50 μg/ml of ampicillin. The culture broth, 4 ml, which reached the stationary phase, was inoculated into 80 ml of the medium with the same composition, followed by shake culture at 37° C. When the cell turbidity (OD600) reached approximately 0.5, 0.4 mM IPTG (isopropyl-β-thiogalactopyranoside) in a final concentration was added to the medium, followed by shake culture at 22° C. for 20 hours. All of the subsequent procedures were performed at 4° C. The transformants cultured were centrifuged (7,000×g, 15 mins.) to collect the cells, and 2 ml/g cell of Buffer S (20 mM sodium phosphate buffer (pH 7.4), 20 mM imidazole, 0.5 M NaCl, 14 mM β-mercaptoethanol) was added to the cells for suspension. Subsequently, ultrasonication was performed (15 secs.×8) followed by centrifugation (15,000×g, 10 mins.). To the supernatant obtained, 0.12% (w/v) polyethyleneimine in a final concentration was added to […], which was then allowed to stand for 30 minutes. The mixture was centrifuged (15,000×g, 10 mins.) and the supernatant was recovered as a crude enzyme solution. The crude enzyme solution was applied to His SpinTrap (GE Healthcare), which had been equilibrated with Buffer S, and centrifuged (70×g, 30 secs.). After washing with 600 μl of Buffer S, the protein bound to the column was stepwise eluted with 600 μl each of Buffer S containing 100, 200 and 500 mM imidazole. The buffer in each fraction eluted was replaced by 20 mM potassium phosphate buffer (pH 7.5) containing 14 mM β-mercaptoethanol, using Microcon YM-30 (Amicon). […] These fractions were mixed and used for analysis.
(§2) Standard reaction conditions are as follows. A reaction solution (2 mM UDP-glucuronic acid, 100 μM glycosyl acceptor substrate, 50 mM potassium phosphate buffer (pH 7.5), enzyme solution), 50 μl, was prepared and the enzyme solution was added to initiate the reaction at 30° C. for 30 minutes. The reaction was stopped by adding 50 μl of 0.5% TFA in CH3CN and provided for HPLC analysis. The conditions for HPLC are as follows: column, Develosil C30-UG-5 (4.6×150 mm); eluant A, 0.1% TFA/H2O; eluant B, 0.08% TFA/90% CH3CN; conditions A for elution (except for aurone, catechin, coumarine and phenylpropanoid), 0 min/5% B→18 min/100% eluant B'18.1 min/5% B→25 min/5% B; conditions B for elution (aurone, catechin, coumarine and phenylpropanoid), 0 min/5% B→20 min/50% eluant B→20.5 min/5% B→25 min/5% B; flow rate, 1 ml/min; detection wavelength: 280 and 350 nm.

PfUGT50 = experiment: UDP-glucuronosyltransferase activity assay (HPLC) with recombinant PfUGT50; format: biochemical, Perilla frutescens; conditions: 100 μM glycosyl acceptor substrate, 2 mM UDP-glucuronic acid, pH 7.5, 30° C., 30 minutes
Procedure: as §1, §2

S1UGT = experiment: UDP-glucuronosyltransferase activity assay (HPLC) with recombinant S1UGT; format: biochemical, Scutellaria laeteviolacea v. yakusimensis; conditions: 100 μM glycosyl acceptor substrate, 2 mM UDP-glucuronic acid, pH 7.5, 30° C., 30 minutes
Procedure: as §1, §2

SiUGT23 = experiment: UDP-glucuronosyltransferase activity assay (HPLC) with recombinant SiUGT23; format: biochemical, Sesamum indicum; conditions: 100 μM glycosyl acceptor substrate, 2 mM UDP-glucuronic acid, pH 7.5, 30° C., 30 minutes
Procedure: as §2
cDNA containing full-length ORF of SiUGT23 derived from Sesamum indicum was amplified by a gene-specific primer set (SEQ ID NOs: 24 and 25). cDNA synthesized using total RNA extracted from sesame seeds was used as a template. SiUGT23 was incorporated into Escherichia coli expression vector as in UGT of Perilla frutescens, Scutellaria laeteviolacea v. yakusimensis and Antirrhinum majus in EXAMPLE 1 and recombinant SiUGT23 protein was expressed in the same way to assay the enzyme activity.

[1] = Analysis of pH and temperature characteristics of the recombinant enzymes; format: biochemical; conditions: for reaction optimum temperature: activity assay for 30 minutes, reaction temperature 10 to 55° C.; for activity in an acidic region: reaction pH dependency
Procedure: Temperature stability was analyzed as follows. An enzyme solution was treated at 15 to 55° C. for an hour and then cooled to 4° C. Using the sample cooled, the residual activity was determined under standard reaction conditions. After 167 mM final concentration of a buffer solution (pH 4, 4.5, 5, Acetate-NaOH; pH 5.5, 6, 6.5, 7, 7.5, NaH2PO4-NaOH; pH 8, 8.5, 9, Tris-HCl) was added to the enzyme solution, the mixture was treated at 4° C. for an hour and then 500 mM final concentration of potassium phosphate buffer (pH 7.5) was added thereto. Using the sample treated, the residual activity was determined under standard reaction conditions. The reaction was performed under standard reaction conditions where the reaction temperature was set at 10 to 55° C. to analyze the reaction temperature dependency. Reaction pH dependency was analyzed under standard reaction conditions using a buffer solution (pH 4, 4.5, 5, Acetate-NaOH; pH 5.5, 6, 6.5, 7, 7.5, NaH2PO4—NaOH; pH 8, 8.5, 9, Tris-HCl) in place of potassium phosphate buffer (pH 7.5). […] PfUGT50 was stable at 30° C. or lower (an hour, pH 7.5) and the reaction optimum temperature was 30° C. in the activity assay for 30 minutes. […] This enzyme was stable at 40° C. or lower (an hour, pH 7.5) and the reaction optimum temperature was 35° C. in the activity assay for 30 minutes. […] This enzyme was stable at 30° C. or lower (an hour, pH 7.5) and the reaction optimum temperature was 45° C. in the activity assay for 30 minutes. These properties were similar to known GT involved in plant secondary metabolism.

relative activity to each substrate, taking the activity to scutellarein as 100% (AmUGTcg10): 34%
relative activity to each substrate, taking the activity to scutellarein as 100% (PfUGT50): 41%
relative activity to each substrate, taking the activity to scutellarein as 100% (S1UGT): 0.6%
relative activity to each substrate, taking the activity to scutellarein as 100% (SiUGT23): 29%
Molecule: O=c1cc(-c2ccc(O)c(O)c2)oc2cc(O)cc(O)c12 [luteolin]
action of Sb7GAT on the substrate (Sb7GAT): does not act

relative activity to each substrate, taking the activity to scutellarein as 100% (AmUGTcg10): 22%
relative activity to each substrate, taking the activity to scutellarein as 100% (PfUGT50): 73%
relative activity to each substrate, taking the activity to scutellarein as 100% (S1UGT): 63%
relative activity to each substrate, taking the activity to scutellarein as 100% (SiUGT23): 24%
Molecule: O=c1cc(-c2ccccc2)oc2cc(O)c(O)c(O)c12 [baicalein]
action of Sb7GAT on the substrate (Sb7GAT): acts

relative activity to each substrate, taking the activity to scutellarein as 100% (AmUGTcg10): 40%
relative activity to each substrate, taking the activity to scutellarein as 100% (PfUGT50): 44%
relative activity to each substrate, taking the activity to scutellarein as 100% (S1UGT): 3%
relative activity to each substrate, taking the activity to scutellarein as 100% (SiUGT23): 7%
Molecule: O=c1cc(-c2ccc(O)cc2)oc2cc(O)cc(O)c12 [apigenin]
action of Sb7GAT on the substrate (Sb7GAT): does not act

relative activity to each substrate, taking the activity to scutellarein as 100% (AmUGTcg10): 4%
relative activity to each substrate, taking the activity to scutellarein as 100% (PfUGT50): 26%
relative activity to each substrate, taking the activity to scutellarein as 100% (S1UGT): 1%
relative activity to each substrate, taking the activity to scutellarein as 100% (SiUGT23): 4%
Molecule: O=c1c(O)c(-c2ccc(O)c(O)c2)oc2cc(O)cc(O)c12 [quercetin]
action of Sb7GAT on the substrate (Sb7GAT): not

Continued, molecule first:

B1: AmUGTcg10: UDP-glucuronosyltransferase having the amino acid sequence of SEQ ID NO: 13, derived from Antirrhinum majus (protein, listed as Antirrhinum majus)
chain: MEDTIVLYASAEHLNSMLLLGKLINKHHPTISVAIISTAPNAAASSVADVAAISYQQLKPATLPSDLTKNPIELFFEIPRLHNPNLLEALEELSLKSKVRAFVIDFFCNPAFEVSTSLNIPTYFYVSSGAFGLCGFLHFPTIDETVEKDIGELNDILEIPGCPPVLSSDFPKGMFFRKSNTYKHFLDTAKNMRRAKGIVVNAFDAMEFRAKEALVNNLCVPNSPTPPVFLVGPLVGASTTTKTTNEQHECLKWLDVQPDRSVIFLCFGRRGLFSADQLKEIAIGLENSGHRFLWSVRCPPSKPNSYNTDPDLDELLPEGFLSRTETRGFVIKSWAPQKEVLSHGAVGGFVTHCGRSSILEAVSFGVPMIGWPIYAEQRMNRVFMVEEMKVALQLDEVEEGFVAAVELEKRVKELMDSKNGRAVRQRVKEMKVAAEVAVEKGGSSVVALQRFVDMVVS
reaction optimum temperature [1]: 45 °C
activity in an acidic region [1]: little activity

B2: S1UGT: UDP-glucuronosyltransferase having the amino acid sequence of SEQ ID NO: 11, derived from Scutellaria laeteviolacea v. yakusimensis (protein, listed as Scutellaria sp.)
chain: MEDTIVIYTTPEHLNTMAVLAKFISKHHPSVPIILISTAAESAAASIAAVPSITYHRLPLPEIPPSLTKDRVELFFELPRLSNPNLRLALQEISQKARIRAFVIDFFCNAAFEVSTSLSIPTFYYFSSGSPTATLVLHFQTLDETIPGDLKDLDDFVEIPGLPPIYSLDIPVALLTRQSLVYQSSVDISKNLRKSAGFLVNGFDALEFRAKEAIVNGLCVPNGPTPPVYFIGPLVGDVDAKAGGEEHECLRWLDTQPSKSVIFLCFGRRGVFSAEQLKETAVALENSGHRFLWSVRNPPEIMKNSDEPDLDELLPEGFLERTKDRGFVIKSWAPQKEVLSHDSVGGFVTHCGRSSISEGVWFGVPMIGWPVDAEQKLNRTVLVEEMQVALPMEEAEGGFVTAAELEKRVRELMESKVGKAVRQRVGELKCSARAAVTGNGSSLSDFKKFLLATRD
reaction optimum temperature [1]: 35 °C
temperature at which the enzyme was stable (residual activity) ([1]; an hour, pH 7.5, treated at 15 to 55° C.): ≤ 40 °C
activity in an acidic region [1]: little activity

B3: PfUGT50: UDP-glucuronosyltransferase having the amino acid sequence of SEQ ID NO: 5, derived from Perilla frutescens a red-leaf variety (protein, listed as Perilla frutescens)
chain: MEGVILLYSSAEHLNSMLLLATFIAKHHPSIPITILSSADYSAAASVSTLPSITYRRLPPVAIPPDSIKNPVEAFFEIPRLQNPNLRVALEEISQKTRIRAFVIDFFCNSAFEVSTSLSIPTYFYVSTGSAGVCIFLYFPTTDETVATDIGDLRDFLEFPGSPIIHSSDLPQLTFFRRSNVFKHMLDTSKNMQKSSGILTNGFDAMEFRAKEALTNGLCVPNGPTPPVYLVGPLVAGSNAKKDHECLLWLDRQPSKSVVFLCFGRRGLFSGKQLREMAVALERSGYRFLWSVRNPPENRSPAEDPDLDELLPEGFLERTKDIGFVVKSWAPQKEVLSHDAVAGFVTHCGRSSILEALVNGKPMIGWPMYAEQRMNKVFMVDEMKVALPLEEEEDGFVTAVELEKRLRQLMESKTGRDVRHRVAEMKAAATAAMGENGSAVVALRKFIDSVTRD
reaction optimum temperature [1]: 30 °C
activity in an acidic region [1]: little activity
